Values after ≈ are worked out from the molar mass of the structure shown.
Assays:
P. aeruginosa = assay: Checkerboard assay (antibiotic + adjuvant combination MIC); assay type: cell-based, Pseudomonas aeruginosa
Description: (§1) Antimicrobial Susceptibility Assay. The in vitro antimicrobial activity of all compounds/antibiotics against a panel of bacteria was evaluated by microbroth dilution method in accordance with the Clinical and Laboratory Standards Institute (CLSI) guidelines (using ATCC strains as quality control strains) (54). Overnight grown bacterial cultures were diluted in saline to achieve a 0.5 McFarland turbidity, followed by 1:50 dilution in Mueller-Hinton broth (MHB) for inoculation to a final concentration of approximately 5×10^5 CFU/mL. […] The lowest concentration that prevented the visible growth of bacteria was defined as the MIC for each antimicrobial agent. The broth with or without bacterial cells was used as positive or negative control, respectively.
Checkerboard Assay. Combination studies with different antibiotics were performed in 96-well plates as previously described (19). Briefly, the antibiotic of interest was serially diluted in MHB along the abscissa while the adjuvant (tobramycin homodimer) was serially diluted in MHB along the ordinate. This creates a 10×7 matrices wherein each well consists of a combination of different antibiotic and adjuvant concentrations. Overnight grown bacterial cultures were diluted in saline to achieve a 0.5 McFarland turbidity, followed by 1:50 dilution in Mueller-Hinton broth (MHB) for inoculation to a final concentration of approximately 5×10^5 CFU/mL. […] MIC was recorded as wells with the lowest concentration of drugs with no bacterial growth. The fractional inhibitory concentration (FIC) for each antibiotic was calculated by dividing the MIC of the antibiotic in the presence of adjuvant by the MIC of the antibiotic alone. Similarly, the FIC of adjuvant was calculated by dividing the MIC of the adjuvant in the presence of antibiotic by the MIC of the adjuvant alone. FIC index is the sum of both FICs. FIC indices of ≤0.5 were deemed synergistic; >0.5-4, no interaction; and >4, antagonistic.

[1] = test system: A. baumannii ATCC 17978 and resistant mutants; assay: microbe, parasite or virus in culture; assay type: cell-based, Acinetobacter baumannii; details: Acinetobacter baumannii
Description: as §1
Development of Resistance Study. […] Tobramycin and colistin were included as controls. At 24-hour intervals, the cultures were assessed for growth. […] This serial passaging was repeated for 8 days.

C[C@H]1[C@H](NC(=O)/C(=N\OC(C)(C)C(=O)O)c2csc(N)n2)C(=O)N1S(=O)(=O)O [Aztreonam, reference compound]
MIC Alone (P. aeruginosa; P. aeruginosa PAO1, β-lactam antibiotic alone): 4 µg/mL | MIC of ATM alone (P. aeruginosa; PA 259-96918): 32 µg/mL | MIC of ATM alone (P. aeruginosa; PA 260-97103): 64 µg/mL | MIC of ATM alone (P. aeruginosa; PA 262-101856): 32 µg/mL | MIC of ATM alone (P. aeruginosa; PA 264-104354): 32 µg/mL | MIC of ATM alone (P. aeruginosa; PA 86052): 64 µg/mL | MIC of ATM alone (P. aeruginosa; PA 88949): 32 µg/mL | MIC of ATM alone (P. aeruginosa; PA 91433): 16 µg/mL | MIC of ATM alone (P. aeruginosa; PA 100036): 16 µg/mL | MIC of ATM alone (P. aeruginosa; PA 101243): 32 µg/mL | MIC of ATM alone (P. aeruginosa; PA 101885): 16 µg/mL | MIC of ATM alone (P. aeruginosa; PA 107092): 64 µg/mL | MIC of ATM alone (P. aeruginosa; PA 108590): 32 µg/mL | MIC of ATM alone (P. aeruginosa; PA 109084): 64 µg/mL | MIC of ATM alone (P. aeruginosa; PA 114228): 32 µg/mL | MIC of ATM alone (P. aeruginosa; PAO1): 4 µg/mL

O=C(N[C@H](CO)[C@H](O)c1ccc([N+](=O)[O-])cc1)C(Cl)Cl [Chloramphenicol]
MIC ([1]; ATCC17978, 18 h, Mutant C (seven serial passages, sub-MICs novobiocin + 7.1 μM compound 1)): 64 µg/mL | MIC ([1]; ATCC17978, Mutant A (seven serial passages, sub-MICs novobiocin)): 32 µg/mL (≈ 99 µM) | MIC ([1]; ATCC17978, Mutant B (seven serial passages, sub-MICs colistin)): 8 µg/mL (≈ 24.8 µM) | MIC ([1]; ATCC17978, Wild-type A. baumannii ATCC 17978): 64 µg/mL (≈ 198 µM)

C#CCCCCO[C@@H]1[C@@H](O[C@H]2O[C@H](CO)[C@@H](O)[C@H](N)[C@H]2O)[C@H](N)C[C@H](N)[C@H]1O[C@H]1O[C@H](CN)[C@@H](O)C[C@H]1N.O=C(O)C(F)(F)F.O=C(O)C(F)(F)F.O=C(O)C(F)(F)F.O=C(O)C(F)(F)F.O=C(O)C(F)(F)F [Compound 4, 5-O-(Hexyne)-Tobramycin]
potentiation of novobiocin (P. aeruginosa; P. aeruginosa PAO1): did not potentiate

[N-]=[N+]=NCCCCO[C@@H]1[C@@H](O[C@H]2O[C@H](CO)[C@@H](O)[C@H](N)[C@H]2O)[C@H](N)C[C@H](N)[C@H]1O[C@H]1O[C@H](CN)[C@@H](O)C[C@H]1N [Compound 5, 5-O-(4-Azidobutyl)-Tobramycin]
potentiation of novobiocin (P. aeruginosa; P. aeruginosa PAO1): did not potentiate

CC(C)(C)OC(=O)NC[C@H]1O[C@H](O[C@H]2[C@H](OCCCCc3cn(CCCCO[C@@H]4[C@@H](O[C@H]5O[C@H](CO)[C@@H](O)[C@H](NC(=O)OC(C)(C)C)[C@H]5O)[C@H](NC(=O)OC(C)(C)C)C[C@H](NC(=O)OC(C)(C)C)[C@H]4O[C@H]4O[C@H](CNC(=O)OC(C)(C)C)[C@@H](O)C[C@H]4NC(=O)OC(C)(C)C)nn3)[C@@H](O[C@H]3O[C@H](CO)[C@@H](O)[C@H](NC(=O)OC(C)(C)C)[C@H]3O)[C@H](NC(=O)OC(C)(C)C)C[C@@H]2NC(=O)OC(C)(C)C)[C@H](NC(=O)OC(C)(C)C)C[C@@H]1O [Compound 12a]
potentiation of novobiocin (P. aeruginosa; P. aeruginosa PAO1): did not potentiate
